Test system: 695427-040-R-J1-PDC complex spheroid viability
Experiment: Anticancer human tumor 695427-040-R-J1-PDC patient-derived colon adenocarcinoma cell line growth inhibition [RAS]
Conditions: for IC50: curve of first compound; for viability, T/C: stronger effect = lower value; active means viability on the fitted dose curve at most 10% of control; inactive means the rest
Outline: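 Multi-cell-type spheroids: tumor cells plus HUVEC endothelial cells and mesenchymal stem cells. RAS-pathway inhibitors were combined with targeted agents, each dosed in half-log steps down from clinical Cmax, or from 10 microM when Cmax was unknown.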

[1] = second compound 0.000949 µM, first compound 0.0316 µM
[2] = second compound 0.000949 µM, first compound 0.1 µM
[3] = second compound 0.000949 µM, first compound 0.316 µM
[4] = second compound 0.000949 µM, first compound 1 µM
[5] = second compound 0.003 µM, first compound 0.0316 µM
[6] = second compound 0.003 µM, first compound 0.1 µM
[7] = second compound 0.003 µM, first compound 0.316 µM
[8] = second compound 0.003 µM, first compound 1 µM
[9] = second compound 0.00949 µM, first compound 0.0316 µM
[10] = second compound 0.00949 µM, first compound 0.1 µM
[11] = second compound 0.00949 µM, first compound 0.316 µM
[12] = second compound 0.00949 µM, first compound 1 µM
[13] = second compound 0.03 µM, first compound 0.0316 µM
[14] = second compound 0.03 µM, first compound 0.1 µM
[15] = second compound 0.03 µM, first compound 0.316 µM
[16] = second compound 0.03 µM, first compound 1 µM
[17] = second compound 0.0949 µM, first compound 0.0316 µM
[18] = second compound 0.0949 µM, first compound 0.1 µM
[19] = second compound 0.0949 µM, first compound 0.316 µM
[20] = second compound 0.0949 µM, first compound 1 µM
[21] = second compound 0.3 µM, first compound 0.0316 µM
[22] = second compound 0.3 µM, first compound 0.1 µM
[23] = second compound 0.3 µM, first compound 0.316 µM
[24] = second compound 0.3 µM, first compound 1 µM
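Further: viability read after seven days of drug exposure.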
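Wherever viability, T/C is given: 100% = DMSO vehicle control viability.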

CC(=O)OC12COC1CC(O)C1(C)C(=O)C(O)C3=C(C)C(OC(=O)C(O)C(NC(=O)OC(C)(C)C)c4ccccc4)CC(O)(C(OC(=O)c4ccccc4)C21)C3(C)C (stereo unspecified) + C#Cc1c(F)ccc2cc(O)cc(-c3ncc4c(N5CC6CCC(C5)N6)nc(OCC56CCCN5CC(F)C6)nc4c3F)c12
> 10 µM: IC50 (second compound 0.0316 µM) | IC50 (second compound 0.1 µM) | IC50 (second compound 0.316 µM) | IC50 (second compound 1 µM)
< 0.0316 µM: IC50 (second compound 3.16 µM) | IC50 (second compound 10 µM)
inactive: viability, T/C (second compound 0.0316 µM, first compound 0.0316 µM) 67.3% | viability, T/C (second compound 0.0316 µM, first compound 0.1 µM) 67% | viability, T/C (second compound 0.0316 µM, first compound 0.316 µM) 69.9% | viability, T/C (second compound 0.0316 µM, first compound 1 µM) 80.3% | viability, T/C (second compound 0.0316 µM, first compound 3.16 µM) 85.8% | viability, T/C (second compound 0.0316 µM, first compound 10 µM) 90.5% | viability, T/C (second compound 0.1 µM, first compound 0.0316 µM) 66.9% | viability, T/C (second compound 0.1 µM, first compound 0.1 µM) 70.5% | viability, T/C (second compound 0.1 µM, first compound 0.316 µM) 66% | viability, T/C (second compound 0.1 µM, first compound 1 µM) 80% | viability, T/C (second compound 0.1 µM, first compound 3.16 µM) 89.1% | viability, T/C (second compound 0.1 µM, first compound 10 µM) 87.7% | viability, T/C (second compound 0.316 µM, first compound 0.0316 µM) 70.7% | viability, T/C (second compound 0.316 µM, first compound 0.1 µM) 68% | viability, T/C (second compound 0.316 µM, first compound 0.316 µM) 64.8% | viability, T/C (second compound 0.316 µM, first compound 1 µM) 72.6% | viability, T/C (second compound 0.316 µM, first compound 3.16 µM) 76.8% | viability, T/C (second compound 0.316 µM, first compound 10 µM) 81.8% | viability, T/C (second compound 1 µM, first compound 0.0316 µM) 59.5% | viability, T/C (second compound 1 µM, first compound 0.1 µM) 59.1% | viability, T/C (second compound 1 µM, first compound 0.316 µM) 59% | viability, T/C (second compound 1 µM, first compound 1 µM) 58.8% | viability, T/C (second compound 1 µM, first compound 3.16 µM) 67.3% | viability, T/C (second compound 1 µM, first compound 10 µM) 61% | viability, T/C (second compound 3.16 µM, first compound 0.0316 µM) 47.6% | viability, T/C (second compound 3.16 µM, first compound 0.1 µM) 44.2% | viability, T/C (second compound 3.16 µM, first compound 0.316 µM) 42.4% | viability, T/C (second compound 3.16 µM, first compound 1 µM) 50.4% | viability, T/C (second compound 3.16 µM, first compound 3.16 µM) 49.7% | viability, T/C (second compound 3.16 µM, first compound 10 µM) 45.3% | viability, T/C (second compound 10 µM, first compound 0.0316 µM) 32.3% | viability, T/C (second compound 10 µM, first compound 0.1 µM) 30.4% | viability, T/C (second compound 10 µM, first compound 0.316 µM) 25.2% | viability, T/C (second compound 10 µM, first compound 1 µM) 32% | viability, T/C (second compound 10 µM, first compound 3.16 µM) 29.6% | viability, T/C (second compound 10 µM, first compound 10 µM) 30.1%

CC(C)NCC(C(=O)N1CCN(c2ncnc3c2C(C)CC3O)CC1)c1ccc(Cl)cc1 (stereo unspecified) + CCn1c(-c2cccnc2C(C)OC)c2c3cc(ccc31)N1CCOC(CC(NC(=O)C(C(C)C)N(C)C(=O)C3(F)CCN(C(=O)C#CC(C)(C)N(C)C)CC3)C(=O)N3CCCC(N3)C(=O)OCC(C)(C)C2)C1
inactive: viability, T/C [1] 86% | viability, T/C [2] 91.1% | viability, T/C [3] 91.7% | viability, T/C [4] 68.2% | viability, T/C (second compound 0.000949 µM, first compound 3.16 µM) 62.6% | viability, T/C (second compound 0.000949 µM, first compound 10 µM) 60.8% | viability, T/C [5] 103% | viability, T/C [6] 91.4% | viability, T/C [7] 65.9% | viability, T/C [8] 84.7% | viability, T/C (second compound 0.003 µM, first compound 3.16 µM) 74.7% | viability, T/C (second compound 0.003 µM, first compound 10 µM) 54.6% | viability, T/C [9] 113% | viability, T/C [10] 89.5% | viability, T/C [11] 59.9% | viability, T/C [12] 85.2% | viability, T/C (second compound 0.00949 µM, first compound 3.16 µM) 63.4% | viability, T/C (second compound 0.00949 µM, first compound 10 µM) 63.5% | viability, T/C [13] 91.6% | viability, T/C [14] 75.3% | viability, T/C [15] 81.5% | viability, T/C [16] 83.8% | viability, T/C (second compound 0.03 µM, first compound 3.16 µM) 59.2% | viability, T/C (second compound 0.03 µM, first compound 10 µM) 56.9% | viability, T/C [17] 88.5% | viability, T/C [18] 88.7% | viability, T/C [19] 72.6% | viability, T/C [20] 70.8% | viability, T/C (second compound 0.0949 µM, first compound 3.16 µM) 77.1% | viability, T/C (second compound 0.0949 µM, first compound 10 µM) 71.2% | viability, T/C [21] 105% | viability, T/C [22] 72.8% | viability, T/C [23] 79.8% | viability, T/C [24] 74.2% | viability, T/C (second compound 0.3 µM, first compound 3.16 µM) 57% | viability, T/C (second compound 0.3 µM, first compound 10 µM) 56.2%
> 10 µM: IC50 (second compound 0.000949 µM) | IC50 (second compound 0.003 µM) | IC50 (second compound 0.00949 µM) | IC50 (second compound 0.03 µM) | IC50 (second compound 0.0949 µM) | IC50 (second compound 0.3 µM)

C=CC(=O)N1CCN(c2nc(OCC3CCCN3C)nc3c(F)c(-c4nc(N)cc(C)c4C(F)(F)F)c(Cl)cc23)C(C)C1 (stereo unspecified) + CCn1c(-c2cccnc2C(C)OC)c2c3cc(ccc31)N1CCOC(CC(NC(=O)C(C(C)C)N(C)C(=O)C3(F)CCN(C(=O)C#CC(C)(C)N(C)C)CC3)C(=O)N3CCCC(N3)C(=O)OCC(C)(C)C2)C1
> 1 µM: IC50 (second compound 0.000949 µM) | IC50 (second compound 0.003 µM) | IC50 (second compound 0.00949 µM) | IC50 (second compound 0.03 µM) | IC50 (second compound 0.0949 µM) | IC50 (second compound 0.3 µM)
inactive: viability, T/C (second compound 0.000949 µM, first compound 0.00316 µM) 113% | viability, T/C (second compound 0.000949 µM, first compound 0.01 µM) 102% | viability, T/C [1] 76.5% | viability, T/C [2] 75.5% | viability, T/C [3] 95.3% | viability, T/C [4] 93.1% | viability, T/C (second compound 0.003 µM, first compound 0.00316 µM) 109% | viability, T/C (second compound 0.003 µM, first compound 0.01 µM) 98.4% | viability, T/C [5] 94% | viability, T/C [6] 77% | viability, T/C [7] 99.4% | viability, T/C [8] 106% | viability, T/C (second compound 0.00949 µM, first compound 0.00316 µM) 104% | viability, T/C (second compound 0.00949 µM, first compound 0.01 µM) 116% | viability, T/C [9] 85.1% | viability, T/C [10] 80% | viability, T/C [11] 105% | viability, T/C [12] 95% | viability, T/C (second compound 0.03 µM, first compound 0.00316 µM) 97.1% | viability, T/C (second compound 0.03 µM, first compound 0.01 µM) 104% | viability, T/C [13] 85.2% | viability, T/C [14] 75.9% | viability, T/C [15] 100% | viability, T/C [16] 108% | viability, T/C (second compound 0.0949 µM, first compound 0.00316 µM) 96.9% | viability, T/C (second compound 0.0949 µM, first compound 0.01 µM) 101% | viability, T/C [17] 107% | viability, T/C [18] 84.4% | viability, T/C [19] 102% | viability, T/C [20] 107% | viability, T/C (second compound 0.3 µM, first compound 0.00316 µM) 84.2% | viability, T/C (second compound 0.3 µM, first compound 0.01 µM) 86.4% | viability, T/C [21] 89.1% | viability, T/C [22] 88.8% | viability, T/C [23] 88.7% | viability, T/C [24] 78%

— PubChem BioAssay AID2060888 (Molecular Pharmacology Branch, DTP, NCI, 2025)
